Columns and labels:
Assay in all cases: Kinase panel profiling at 1 µmol/L (MSA or IMAP), percentage inhibition
Assay type in all cases: biochemical
[1] = target: panel of 255 wild-type kinases (Homo sapiens, UniProt Q86Z02); details: kinase HIPK1; 1 µmol/L single concentration; read-out: %-inhibition at 1 µmol/L, HIPK1
[2] = target: panel of 255 wild-type kinases (Homo sapiens, UniProt Q15375); details: kinase EPHA7; 1 µmol/L single concentration; read-out: %-inhibition at 1 µmol/L, EPHA7
[3] = target: T1, panel of 255 wild-type kinases (Homo sapiens, UniProt Q8TD19); details: NEK9; 1 µmol/L single concentration; read-out: %-inhibition, NEK9
T1 sequence (Q8TD19 1-979): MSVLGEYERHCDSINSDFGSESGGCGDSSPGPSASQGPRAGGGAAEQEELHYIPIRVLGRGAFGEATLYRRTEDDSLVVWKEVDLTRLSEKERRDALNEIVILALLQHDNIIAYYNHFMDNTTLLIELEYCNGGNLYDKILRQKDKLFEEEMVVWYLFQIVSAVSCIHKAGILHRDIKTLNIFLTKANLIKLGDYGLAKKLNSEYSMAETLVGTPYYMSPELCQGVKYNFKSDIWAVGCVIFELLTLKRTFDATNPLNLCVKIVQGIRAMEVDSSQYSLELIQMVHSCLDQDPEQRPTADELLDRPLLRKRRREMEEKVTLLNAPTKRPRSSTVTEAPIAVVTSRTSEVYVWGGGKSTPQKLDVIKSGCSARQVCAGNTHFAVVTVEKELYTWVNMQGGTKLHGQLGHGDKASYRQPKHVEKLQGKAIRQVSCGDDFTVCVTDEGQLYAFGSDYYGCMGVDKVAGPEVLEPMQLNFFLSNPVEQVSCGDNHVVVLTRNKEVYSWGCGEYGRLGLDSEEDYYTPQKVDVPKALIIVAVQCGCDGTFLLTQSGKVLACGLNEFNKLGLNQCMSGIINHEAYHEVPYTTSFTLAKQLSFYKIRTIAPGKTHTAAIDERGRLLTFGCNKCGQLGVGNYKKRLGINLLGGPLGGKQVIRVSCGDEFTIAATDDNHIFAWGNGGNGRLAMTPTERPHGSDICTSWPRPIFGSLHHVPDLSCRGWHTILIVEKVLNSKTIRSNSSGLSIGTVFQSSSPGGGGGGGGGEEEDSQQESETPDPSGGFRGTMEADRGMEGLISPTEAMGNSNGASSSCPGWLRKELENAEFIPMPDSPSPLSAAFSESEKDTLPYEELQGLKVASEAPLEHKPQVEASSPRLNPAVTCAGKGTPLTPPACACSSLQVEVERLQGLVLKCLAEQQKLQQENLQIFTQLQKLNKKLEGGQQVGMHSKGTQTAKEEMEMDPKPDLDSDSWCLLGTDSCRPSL

[4] = target: panel of 255 wild-type kinases (Homo sapiens, UniProt Q9NYA1); details: kinase SPHK1; 1 µmol/L single concentration; read-out: %-inhibition at 1 µmol/L, SPHK1
[5] = target: panel of 255 wild-type kinases (Homo sapiens, UniProt P22694); details: kinase PKACβ; 1 µmol/L single concentration; read-out: %-inhibition at 1 µmol/L, PKACβ
[6] = target: panel of 255 wild-type kinases (Homo sapiens, UniProt Q9BYP7); details: kinase WNK3; 1 µmol/L single concentration; read-out: %-inhibition at 1 µmol/L, WNK3
[7] = target: panel of 255 wild-type kinases (Homo sapiens, UniProt P49841); details: kinase GSK3β; 1 µmol/L single concentration
[8] = target: panel of 255 wild-type kinases (Homo sapiens, UniProt Q96GD4); details: AurB kinase assay; 1 µmol/L single concentration; read-out: %-inhibition AurB
[9] = target: panel of 255 wild-type kinases (Homo sapiens, UniProt Q9UQM7); details: CaMK2α kinase assay; 1 µmol/L single concentration; read-out: %-inhibition CaMK2α
[10] = target: panel of 255 wild-type kinases (Homo sapiens, UniProt Q04759); details: kinase PKCθ; 1 µmol/L single concentration; read-out: %-inhibition at 1 µmol/L, PKCθ
[11] = target: T2, panel of 255 wild-type kinases (Homo sapiens, UniProt P42681); details: kinase TXK; 1 µmol/L single concentration; read-out: %-inhibition at 1 µmol/L, TXK
T2 sequence (P42681 1-527): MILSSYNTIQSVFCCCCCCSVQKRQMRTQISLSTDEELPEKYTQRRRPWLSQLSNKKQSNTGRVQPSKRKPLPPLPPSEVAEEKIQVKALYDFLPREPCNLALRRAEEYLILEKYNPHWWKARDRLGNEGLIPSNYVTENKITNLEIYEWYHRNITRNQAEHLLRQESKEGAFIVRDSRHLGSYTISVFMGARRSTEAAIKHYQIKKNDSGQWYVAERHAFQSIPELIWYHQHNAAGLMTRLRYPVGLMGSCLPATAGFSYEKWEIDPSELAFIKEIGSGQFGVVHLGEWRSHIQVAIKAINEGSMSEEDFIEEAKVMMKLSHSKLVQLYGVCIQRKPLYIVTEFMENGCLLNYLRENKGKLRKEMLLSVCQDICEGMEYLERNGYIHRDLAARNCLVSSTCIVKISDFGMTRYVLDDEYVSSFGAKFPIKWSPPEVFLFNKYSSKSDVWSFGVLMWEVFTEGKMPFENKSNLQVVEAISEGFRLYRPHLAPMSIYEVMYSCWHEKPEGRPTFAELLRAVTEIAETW

[12] = target: panel of 255 wild-type kinases (Homo sapiens, UniProt P04626); details: kinase HER2; 1 µmol/L single concentration; read-out: %-inhibition at 1 µmol/L, HER2

| Structure (SMILES) | inhibition at 1 µM [1] | inhibition at 1 µM [2] | inhibition at 1 µM [3] | inhibition at 1 µM [4] | inhibition at 1 µM [5] | inhibition at 1 µM [6] | inhibition at 1 µM [7] | inhibition at 1 µM [8] | inhibition at 1 µM [9] | inhibition at 1 µM [10] | inhibition at 1 µM [11] | inhibition at 1 µM [12] |
| --- | --- | --- | --- | --- | --- | --- | --- | --- | --- | --- | --- | --- |
| CCN1C(=O)N(c2c(F)c(OC)cc(OC)c2F)Cc2cnc3[nH]c(CN4CCOCC4)cc3c21 [pemigatinib] | 1.47% | -0.619% | -1.57% | -13% | -7% | -0.586% | -7% | 2.32% | 5% | -2.16% | -0.753% | -4% |
| FC(F)(F)c1ccc(CNc2ccc(Cc3c[nH]c4ncc(Cl)cc34)cn2)cn1 [pexidartinib] | 4.72% | 6.38% | 1.33% | -5% | 4% | 0.624% | 4.44% | 60% | -4% | 3.27% | 6.34% | 6% |
| CO[C@]1(C(=O)N[C@@H](C)c2ccc(-n3cc(F)cn3)nc2)CC[C@H](c2nc(C)cc(Nc3cc(C)[nH]n3)n2)CC1 [pralsetinib] | 13% | 68% | 16% | 0.199% | 20% | 0.505% | 51% | 38% | -1.59% | -0.598% | 41% | 20% |
| CCn1c(=O)c(-c2cc(NC(=O)Nc3ccccc3)c(F)cc2Br)cc2cnc(NC)cc21 [ripretinib] | -5.27% | 54% | -2.78% | -19% | -3.65% | -1.09% | -0.349% | 5% | -5.68% | -3% | 11% | 5.51% |
| COc1ccc(CN2C3CC2CN(c2ccc(-c4cc(OCC(C)(C)O)cn5ncc(C#N)c45)cn2)C3)cn1 [selpercatinib] | -0.334% | 96% | -0.802% | -13% | -4.64% | -1.49% | 40% | 79% | 1.43% | -2.29% | 54% | 2.47% |
| Cn1cnc2c(F)c(Nc3ccc(Br)cc3Cl)c(C(=O)NOCCO)cc21 [selumetinib] | 0.0183% | -1.78% | 0.727% | -8% | -21% | -1.43% | -8% | 12% | -1.34% | -0.321% | 3.19% | 3% |
| Cc1cc(Nc2ncnc3ccc(NC4=NC(C)(C)CO4)cc23)ccc1Oc1ccn2ncnc2c1 [tucatinib] | 11% | 1.07% | -2% | -6.37% | -15% | 3% | 8% | -0.568% | -3% | 0.763% | 5% | 101% |
| C=CC(=O)N1CCC([C@@H]2CCNc3c(C(N)=O)c(-c4ccc(Oc5ccccc5)cc4)nn32)CC1 [zanubrutinib] | -3.58% | 0.758% | -2% | -15% | -8% | 5.7% | -9% | -4% | 2% | -3% | 89% | 69% |

From PMC9516332 (Frontiers in Oncology, 2022)
